Source: ChEMBL document CHEMBL1201862, “PubChem BioAssay data set” (2004)
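Dose response: 5 concentrations. Exposure: 48 h. Format: 96-well plates. Endpoint: linear interpolation; highest concentration if not reached. The concentration for 50% growth inhibition is given as GI50.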 Activity calls are given as the source filed them. Rule as the data show it: active = GI50 up to about 1.1 µM and inactive = higher.

Columns and labels:
Assay in all cases: NCI anticancer screen, dose series, 48 h
SF-539 = system: SF-539
UO-31 = system: UO-31
MCF7 = system: MCF7
HOP-92 = system: HOP-92
SK-MEL-28 = system: SK-MEL-28
COLO 205 = system: COLO 205
NCI/ADR-RES = system: NCI/ADR-RES
HCC 2998 = system: HCC 2998
CCRF-CEM = system: CCRF-CEM
NCI-H226 = system: NCI-H226
A498 = system: A498
M14 = system: M14
SNB-75 = system: SNB-75
786-0 = system: 786-0
MOLT-4 = system: MOLT-4
NCI-H23 = system: NCI-H23
IGROV-1 = system: IGROV-1
DU-145 = system: DU-145
LOX IMVI = system: LOX IMVI

Measured: GI50

COc1ccc(-c2cc(=O)c3c(OC)c(OC)c(OC)cc3o2)cc1
inactive: SF-539 81.8 µM | UO-31 19 µM | MCF7 37.4 µM | HOP-92 20.6 µM | SK-MEL-28 45.6 µM | COLO 205 22.1 µM | NCI/ADR-RES 28.2 µM | HCC 2998 16.8 µM | CCRF-CEM 14 µM | NCI-H226 27 µM | A498 19.8 µM | M14 54.8 µM | SNB-75 26.9 µM | 786-0 19.9 µM | MOLT-4 18 µM | NCI-H23 40.6 µM | IGROV-1 37.9 µM | DU-145 25.5 µM | LOX IMVI 28.2 µM

COC(=O)c1ccccc1/C=C1\Cc2cc(C)c(C)cc2C1=O
inactive: SF-539 > 100 µM | UO-31 84.1 µM | MCF7 > 100 µM | HOP-92 21.2 µM | SK-MEL-28 > 100 µM | COLO 205 > 100 µM | NCI/ADR-RES > 100 µM | HCC 2998 > 100 µM | CCRF-CEM > 100 µM | NCI-H226 49 µM | A498 73.3 µM | M14 > 100 µM | SNB-75 26.5 µM | 786-0 54.8 µM | MOLT-4 > 100 µM | IGROV-1 > 100 µM | DU-145 > 100 µM | LOX IMVI > 100 µM

COCN1C(N)=C(C(=O)OC(C)(C)C)C2=CC(=O)C=CC21C (stereo not given)
inactive: SF-539 17.4 µM | UO-31 13.6 µM | MCF7 11 µM | HOP-92 5.14 µM | SK-MEL-28 20.3 µM | COLO 205 5.01 µM | NCI/ADR-RES 25.2 µM | HCC 2998 22.6 µM | CCRF-CEM 3.66 µM | NCI-H226 16.8 µM | A498 20.1 µM | M14 15.8 µM | SNB-75 19.1 µM | 786-0 11.9 µM | MOLT-4 3.7 µM | NCI-H23 15.4 µM | IGROV-1 13.1 µM | DU-145 11.9 µM | LOX IMVI 13.6 µM

O=C(Nc1ccc(Cl)cc1)c1cc(S(=O)(=O)Nc2n[nH]c(Nc3ccc4ccccc4c3)n2)c(SSc2cc(Cl)c(C(=O)Nc3ccc(Cl)cc3)cc2S(=O)(=O)Nc2n[nH]c(Nc3ccc4ccccc4c3)n2)cc1Cl
inactive: SF-539 23.6 µM | UO-31 24.2 µM | MCF7 25.8 µM | HOP-92 28.2 µM | SK-MEL-28 21.8 µM | COLO 205 18.4 µM | NCI/ADR-RES 30.8 µM | HCC 2998 17.9 µM | CCRF-CEM 20.5 µM | NCI-H226 21.7 µM | A498 23.6 µM | M14 24.2 µM | SNB-75 23 µM | 786-0 31.2 µM | MOLT-4 19.1 µM | NCI-H23 24.5 µM | IGROV-1 21.7 µM | DU-145 24.4 µM | LOX IMVI 17.5 µM

COc1ccc(C(c2ccc3c(c2)OCO3)N2C(=O)CCC2C(=O)O)cc1 (stereo not given)
inactive: SF-539 > 100 µM | UO-31 > 100 µM | MCF7 > 100 µM | HOP-92 > 100 µM | SK-MEL-28 > 100 µM | COLO 205 > 100 µM | NCI/ADR-RES > 100 µM | HCC 2998 > 100 µM | CCRF-CEM > 100 µM | NCI-H226 > 100 µM | A498 > 100 µM | M14 > 100 µM | SNB-75 > 100 µM | 786-0 > 100 µM | MOLT-4 > 100 µM | NCI-H23 > 100 µM | IGROV-1 > 100 µM | DU-145 > 100 µM | LOX IMVI > 100 µM

CCOC(=O)c1c(N2CCOCC2)[nH]c(=O)c(C(c2ccc(Cl)c([N+](=O)[O-])c2)c2c(O)c(C(=O)OCC)c(N3CCOCC3)[nH]c2=O)c1O
inactive: SF-539 26.5 µM | UO-31 34 µM | MCF7 22 µM | HOP-92 23.9 µM | SK-MEL-28 42.6 µM | COLO 205 > 100 µM | NCI/ADR-RES 39 µM | HCC 2998 > 100 µM | CCRF-CEM 4.76 µM | NCI-H226 > 100 µM | A498 > 100 µM | M14 20.7 µM | SNB-75 48.1 µM | 786-0 28.1 µM | MOLT-4 25.2 µM | NCI-H23 25.8 µM | DU-145 22.9 µM | LOX IMVI 19.5 µM

CCOC(=O)c1c(N2CCOCC2)[nH]c(=O)c(C(c2c(O)c(C(=O)OCC)c(N3CCOCC3)[nH]c2=O)C(C)C)c1O
inactive: SF-539 > 100 µM | UO-31 > 100 µM | MCF7 > 100 µM | HOP-92 80.5 µM | SK-MEL-28 > 100 µM | COLO 205 > 100 µM | NCI/ADR-RES > 100 µM | HCC 2998 > 100 µM | CCRF-CEM > 100 µM | NCI-H226 > 100 µM | A498 > 100 µM | M14 > 100 µM | SNB-75 22.4 µM | 786-0 60.1 µM | MOLT-4 > 100 µM | NCI-H23 > 100 µM | DU-145 > 100 µM | LOX IMVI > 100 µM
